The text below walks through data of patent US7053105B2, “Farnesyl transferase inhibiting quinoline and quinazoline derivatives as farnesyl transferase inhibitors” (Janssen Pharmaceutica, N.V., priority 2000, dated 2006).

The compound `Cn1cncc1-c1nc(-c2cccc(Cl)c2)c2cc(C(O)(c3ccc(Cl)cc3)c3cncn3C)ccc2n1` (stereo not drawn) [Example B6, 4-(3-chlorophenyl)-α-(4-chlorophenyl)-α,2-bis(1-methyl-1H-imidazol-5-yl)-6-quinazolinemethanol] yielded a melting point of 160 °C.

Take `Cc1cc(-c2cccc(Cl)c2)c2cc(C(O)(c3ccc(Cl)cc3)c3nnc(S)n3C)ccc2n1` (stereo not drawn) [Example B14a, 4-(3-chlorophenyl)-α-(4-chlorophenyl)-α-(5-mercapto-4-methyl-4H-1,2,4-triazol-3-yl)-2-methyl-6-quinolinemethanol]: the melting point was 166 °C.

In turn, `Cc1cc(-c2cccc(Cl)c2)c2cc(C(O)(c3ccc(Cl)cc3)c3nncn3C)ccc2n1.O` (centres unmarked) (hydrate or solvate) yielded a melting point of 150 °C.

On to `Cn1cncc1C(O)(c1ccc(Cl)cc1)c1ccc2nc(/C=C/C(N)=O)cc(-c3cccc(Cl)c3)c2c1` (racemic) [Example B11, (±)-(E)-3-[4-(3-chlorophenyl)-6-[(4-chlorophenyl)hydroxy(1-methyl-1H-imidazol-5-yl)methyl]-2-quinolinyl]-2-propenamide], for which the melting point was found to be 80 °C. `Cc1nc(-c2cccc(Cl)c2)c2cc(C(O)(c3ccc(Cl)cc3)c3cncn3C)ccc2n1` (stereo not drawn) [Example B13, 4-(3-chlorophenyl)-α-(4-chlorophenyl)-2-methyl-α-(1-methyl-1H-imidazol-5-yl)-6-quinazolinemethanol] came in with a melting point of 223 °C. The compound `Cn1cncc1C(O)(c1ccc(Cl)cc1)c1ccc2nc(C#Cc3ccccc3)cc(-c3cccc(Cl)c3)c2c1` (stereo not drawn) [Example B25, 4-(3-chlorophenyl)-α-(4-chlorophenyl)-α-(1-methyl-1H-imidazol-5-yl)-2-(phenylethynyl)-6-quinolinemethanol] showed a melting point of 154 °C. As for `Cn1cncc1C(O)(c1ccc(Cl)cc1)c1ccc2nc(N)nc(-c3cccc(Cl)c3)c2c1` (stereo not drawn) [Example B19, 2-amino-4-(3-chlorophenyl)-α-(4-chlorophenyl)-α-(1-methyl-1H-imidazol-5-yl)-6-quinazolinemethanol], the figure is 235 °C; as for `CSc1nnc(C(O)(c2ccc(Cl)cc2)c2ccc3nc(C)cc(-c4cccc(Cl)c4)c3c2)n1C` (stereo not drawn) [Example B14b, 4-(3-chlorophenyl)-α-(4-chlorophenyl)-2-methyl-α-[4-methyl-5-(methylthio)-4H-1,2,4-triazol-3-yl]-6-quinolinemethanol], 142 °C; as for `Cn1cncc1C(O)(c1ccc(Cl)cc1)c1ccc2nc(C=NO)cc(-c3cccc(Cl)c3)c2c1` (racemic) [Example B1, (±)-4-(3-chlorophenyl)-6-[(4-chlorophenyl)hydroxy(1-methyl-1H-imidazol-5-yl)methyl]-2-quinolinecarboxaldehyde, oxime], 205 °C.

The compound `CSc1nnc(C(N)(c2ccc(Cl)cc2)c2ccc3nc(C)cc(-c4cccc(Cl)c4)c3c2)n1C` (stereo not drawn) [Example B16b, 4-(3-chlorophenyl)-α-(4-chlorophenyl)-2-methyl-α-[4-methyl-5-(methylthio)-4H-1,2,4-triazol-3-yl]-6-quinolinemethanamine] showed a melting point of 128 °C. In turn, `Cn1cncc1C(O)(c1ccc(Cl)cc1)c1ccc2nc(-c3cccnc3)nc(-c3cccc(Cl)c3)c2c1` (stereo not drawn) [Example B26, 4-(3-chlorophenyl)-α-(4-chlorophenyl)-α-(1-methyl-1H-imidazol-5-yl)-2-(3-pyridinyl)-6-quinazolinemethanol] showed a melting point of 178 °C.
